# In patent US8236792B2, “Substituted pyrrolidine amides as modulators of the histamine H3 receptor” (Janssen Pharmaceutica NV, priority 2008, dated 2012):
# pKi: −log10 of the molar value. Read-outs that look alike come from different tables or passages of the source.
# Experiments:
# human H3 receptor [1] = biological target: T1, human H3 receptor (Homo sapiens, UniProt Q9Y5N1); assay: H3 Receptor Binding (Human) Method 2, [125I]-iodoproxyfan competitive radioligand binding; set-up: expressed in transfected cells
# T1 sequence (Q9Y5N1 whole entry): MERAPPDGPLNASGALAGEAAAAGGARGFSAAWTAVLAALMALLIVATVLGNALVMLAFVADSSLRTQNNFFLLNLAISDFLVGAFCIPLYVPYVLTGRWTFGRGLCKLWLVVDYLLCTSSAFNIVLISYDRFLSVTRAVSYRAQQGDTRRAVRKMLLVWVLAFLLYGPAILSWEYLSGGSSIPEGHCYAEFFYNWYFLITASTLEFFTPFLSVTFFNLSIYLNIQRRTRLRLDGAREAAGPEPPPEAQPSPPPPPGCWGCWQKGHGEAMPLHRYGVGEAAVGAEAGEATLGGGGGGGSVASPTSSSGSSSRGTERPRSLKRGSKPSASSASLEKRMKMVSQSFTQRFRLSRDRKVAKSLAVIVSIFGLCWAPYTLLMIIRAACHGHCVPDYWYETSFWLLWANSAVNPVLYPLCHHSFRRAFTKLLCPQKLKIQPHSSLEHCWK
# cloned rat H3 receptors = biological target: T2, cloned rat H3 receptors (Rattus norvegicus, UniProt Q9QYN8); assay: H3 Receptor Binding (Rat)
# T2 construct: expressed in transfected cells
# T2 sequence (Q9QYN8 whole entry): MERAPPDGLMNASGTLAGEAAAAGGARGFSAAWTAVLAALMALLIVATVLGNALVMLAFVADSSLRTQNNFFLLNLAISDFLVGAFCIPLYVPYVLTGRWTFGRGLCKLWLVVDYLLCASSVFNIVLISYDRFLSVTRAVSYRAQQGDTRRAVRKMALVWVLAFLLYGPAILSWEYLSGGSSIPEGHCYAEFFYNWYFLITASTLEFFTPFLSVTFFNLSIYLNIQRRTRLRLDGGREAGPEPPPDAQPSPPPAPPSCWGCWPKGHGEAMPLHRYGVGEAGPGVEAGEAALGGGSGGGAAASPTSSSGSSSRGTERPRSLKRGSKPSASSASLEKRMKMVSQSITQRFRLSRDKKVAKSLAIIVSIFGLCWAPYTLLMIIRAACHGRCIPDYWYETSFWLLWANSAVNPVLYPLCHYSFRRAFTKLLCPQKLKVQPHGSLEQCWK
# Description: Compounds were tested for binding to cloned rat H3 receptors, stably expressed in SK-N-MC cells.
# Compounds were tested in their free base or hydrochloride salt forms.
# human H3 receptor [2] = biological target: T1, human H3 receptor; assay: Cyclic AMP Accumulation (human H3 reporter subline); assay type: cell-based; set-up: expressed in transfected cells; host or cells: SK-N-MC sublines with a reporter construct; conditions: SK-N-MC subline with reporter construct and human H3 receptor; free base or trifluoroacetate salt; average
# Description: (§1) Sublines of SK-N-MC cells were created that expressed a reporter construct and either the human or rat H3 receptor. […] Compounds were tested in their free base or trifluoroacetate salt forms.
# rat H3 receptor = biological target: T3, rat H3 receptor (Rattus norvegicus, UniProt Q9QYN8); assay: Cyclic AMP Accumulation (rat H3 reporter subline); assay type: cell-based
# T3 construct: expressed in transfected cells; host or cells: SK-N-MC sublines with a reporter construct
# T3 sequence (Q9QYN8 whole entry): as above
# Description: as §1
# [3] = biological target: T4, cloned human H3 receptors (Homo sapiens, UniProt Q9Y5N1); assay: H3 Receptor Binding (Human) Method 1; conditions: receptor stably expressed in SK-N-MC cells, free base forms, average of results
# T4 construct: expressed in transfected cells
# T4 sequence (Q9Y5N1 whole entry): as the sequence (Q9Y5N1 whole entry) above
# [4] = receptor stably expressed in SK-N-MC cells, free base or hydrochloride salt, average of results, read-out: Rat H3 Ki
# [5] = SK-N-MC subline with reporter construct and rat H3 receptor, free base or trifluoroacetate salt, average, read-out: Rat pA2 (converted)
# [6] = SK-N-MC subline with reporter construct and rat H3 receptor, free base or trifluoroacetate salt, average
Compound,pKi (cloned rat H3 receptors; [4]),pKi (human H3 receptor [1]; read-out: Human H3 Ki),pKi [3],further results
"O=C([C@H]1C[C@H](Oc2ccccc2)CN1)N1CCCN(C2CCC2)CC1 [Example 67, (2R,4S)-4-Phenoxy-2-(4-cyclobutyl-[1,4]diazepane-1-carbonyl)-pyrrolidine]",6.30,,,pKi (human H3 receptor [1]): 8.30; Human pA2 (human H3 receptor [2]): 8.09; Kb (rat H3 receptor; [5]): 57.5 nM
"O=C([C@H]1C[C@H](Oc2ccc(Cl)cc2)CN1)N1CCCN(C2CCC2)CC1 [Example 69, (2R,4S)-4-(4-Chloro-phenoxy)-2-(4-cyclobutyl-[1,4]diazepane-1-carbonyl)-pyrrolidine]",7.74,,,Rat pA2 (rat H3 receptor; [6]): 8.30
"CN1C[C@@H](Oc2ccc(F)cc2)C[C@@H]1C(=O)N1CCCN(C2CCC2)CC1 [Example 110, (2R,4S)-1-Methyl-2-(4-cyclobutyl-[1,4]diazepane-1-carbonyl)-4-(4-fluoro-phenoxy)-pyrrolidine]",,,,pKi (cloned rat H3 receptors): 6.32; Kb (rat H3 receptor): 16.6 nM
"N#Cc1ccc(O[C@H]2CN[C@H](C(=O)N3CCCN(C4CCC4)CC3)C2)cc1 [Example 94, (2S,4R)-4-(4-Cyano-phenoxy)-2-(4-cyclobutyl-[1,4]diazepane-1-carbonyl)-pyrrolidine]",,,,pKi (cloned rat H3 receptors): 6.82; Kb (rat H3 receptor; [5]): 110 nM
"O=C([C@H]1C[C@H](Oc2ccsc2)CN1)N1CCCN(C2CCC2)CC1 [Example 102, (2R,4S)-2-(4-Cyclobutyl-[1,4]diazepane-1-carbonyl)-4-(thiophen-3-yloxy)-pyrrolidine]",,8.30,,Human pA2 (human H3 receptor [2]): 8.65; Kb (rat H3 receptor; [5]): 21.9 nM
"O=C([C@H]1C[C@H](Oc2cccc(F)c2)CN1)N1CCCN(C2CCC2)CC1 [Example 65, (2R,4S)-4-(3-Fluoro-phenoxy)-2-(4-cyclobutyl-[1,4]diazepane-1-carbonyl)-pyrrolidine]",,,,pKi (cloned rat H3 receptors): 7.92; Kb (rat H3 receptor; [5]): 7.41 nM
"O=C([C@H]1C[C@H](OCc2ccc(F)cc2)CN1)N1CCCN(C2CCC2)CC1 [Example 153, (2R,4S)-2-(4-Cyclobutyl-[1,4]diazepane-1-carbonyl)-4-(4-fluoro-benzyloxy)-pyrrolidine]",7.89,8.52,,
"CC(=O)N1C[C@@H](Oc2cccc(F)c2)C[C@@H]1C(=O)N1CCCN(C2CCC2)CC1 [Example 131, (2R,4S)-1-[2-(4-Cyclobutyl-[1,4]diazepane-1-carbonyl)-4-(3-fluoro-phenoxy)-pyrrolidin-1-yl]-ethanone]",,,,pKi (human H3 receptor [1]): 8.70; pKi (cloned rat H3 receptors): 7.77; Rat pA2 (rat H3 receptor; [6]): 8.22
"O=C([C@H]1C[C@H](OCc2cccc(F)c2)CN1)N1CCCN(C2CCC2)CC1 [Example 152, (2R,4S)-2-(4-Cyclobutyl-[1,4]diazepane-1-carbonyl)-4-(3-fluoro-benzyloxy)-pyrrolidine]",8.10,8.40,,
"N#Cc1ccc(O[C@@H]2CN[C@@H](C(=O)N3CCCN(C4CCC4)CC3)C2)cc1 [Example 64, (3S,5R)-4-[5-(4-Cyclobutyl-[1,4]diazepane-1-carbonyl)-pyrrolidin-3-yloxy]-benzonitrile]",,,,pKi (cloned rat H3 receptors): 6.33; Kb (rat H3 receptor; [5]): 12.9 nM
"O=C([C@H]1C[C@H](Oc2ccc(F)cc2)CN1)N1CCCN(C2CCCC2)CC1 [Example 82, (2R,4S)-2-(4-Cyclopentyl-[1,4]diazepane-1-carbonyl)-4-(4-fluoro-phenoxy)-pyrrolidine]",7.74,,,Rat pA2 (rat H3 receptor; [6]): 8.21
"N#Cc1ccc(O[C@@H]2CN[C@@H](C(=O)N3CCCN(C4CCCC4)CC3)C2)cc1 [Example 83, (2R,4S)-4-(4-Cyano-phenoxy)-2-(4-cyclopentyl-[1,4]diazepane-1-carbonyl)-pyrrolidine]",,,,pKi (cloned rat H3 receptors): 7.80; Rat pA2 (rat H3 receptor; [6]): 8.51
"O=C([C@H]1C[C@@H](OCc2ccc(F)cc2)CN1)N1CCCN(C2CCC2)CC1 [Example 155, (2R,4R)-2-(4-Cyclobutyl-[1,4]diazepane-1-carbonyl)-4-(4-fluoro-benzyloxy)-pyrrolidine]",,,6.80,
"O=C([C@H]1C[C@H](Oc2cccc(Cl)c2)CN1)N1CCCN(C2CCC2)CC1 [Example 68, (2R,4S)-4-(3-chloro-phenoxy)-2-(4-cyclobutyl-[1,4]diazepane-1-carbonyl)-pyrrolidine]",,,,Rat pA2 (rat H3 receptor; [6]): 8.59

# The next lines start with results.
pKi (cloned rat H3 receptors; [4]),pKi (human H3 receptor [1]; read-out: Human H3 Ki),pKi [3],Compound,further results
7.52,,,"CC(=O)N1C[C@@H](Oc2ccc(F)cc2)C[C@@H]1C(=O)N1CCCN(C2CCC2)CC1 [Example 120, (2R,4S)-1-[2-(4-Cyclobutyl-[1,4]diazepane-1-carbonyl)-4-(4-fluoro-phenoxy)-pyrrolidin-1-yl]-ethanone]",Kb (rat H3 receptor; [5]): 1.62 nM
,8.05,8.30,"CC(C)(C)OC(=O)N1C[C@@H](Oc2ccccc2)C[C@@H]1C(=O)N1CCCN(C2CCC2)CC1 [Example 19, (2R,4S)-2-(4-Cyclobutyl-[1,4]diazepane-1-carbonyl)-4-phenoxy-pyrrolidine-1-carboxylic acid tert-butyl ester]",
6.89,,,"O=C([C@@H]1C[C@@H](Oc2cccc(Cl)c2)CN1)N1CCCN(C2CCC2)CC1 [Example 88, (2S,4R)-4-(3-Chloro-phenoxy)-2-(4-cyclobutyl-[1,4]diazepane-1-carbonyl)-pyrrolidine]",
,8.52,,"CC(=O)N1C[C@@H](Oc2ccsc2)C[C@@H]1C(=O)N1CCCN(C2CCC2)CC1 [Example 134, (2R,4S)-1-[2-(4-Cyclobutyl-[1,4]diazepane-1-carbonyl)-4-(thiophen-3-yloxy)-pyrrolidin-1-yl]-ethanone]",Human pA2 (human H3 receptor [2]): 9.28; Kb (rat H3 receptor; [5]): 8.71 nM
7.92,9.00,,"CC(=O)N1C[C@@H](Oc2ccc(Cl)c(C)c2)C[C@@H]1C(=O)N1CCCN(C2CCC2)CC1 [Example 122, (2R,4S)-1-[4-(4-Chloro-3-methyl-phenoxy)-2-(4-cyclobutyl-[1,4]diazepane-1-carbonyl)-pyrrolidin-1-yl]-ethanone]",
,8.52,8.52,"CC(C)(C)OC(=O)N1C[C@@H](Oc2cccc(F)c2)C[C@@H]1C(=O)N1CCCN(C2CCC2)CC1 [Example 17, (2R,4S)-2-(4-Cyclobutyl-[1,4]diazepane-1-carbonyl)-4-(3-fluoro-phenoxy)-pyrrolidine-1-carboxylic acid tert-butyl ester]",
,8.70,8.52,"CC(C)(C)OC(=O)N1C[C@@H](Oc2ccc(C#N)cc2)C[C@@H]1C(=O)N1CCCN(C2CCC2)CC1 [Example 16, (2R,4S)-4-(4-Cyano-phenoxy)-2-(4-cyclobutyl-[1,4]diazepane-1-carbonyl)-pyrrolidine-1-carboxylic acid tert-butyl ester]",
6.63,8.30,,"Cc1cccc(O[C@H]2C[C@H](C(=O)N3CCCN(C4CCC4)CC3)N(C(=O)OC(C)(C)C)C2)c1 [Example 27, (2R,4S)-2-(4-Cyclobutyl-[1,4]diazepane-1-carbonyl)-4-m-tolyloxy-pyrrolidine-1-carboxylic acid tert-butyl ester]",
,8.40,7.92,"CC(C)(C)OC(=O)N1C[C@@H](Oc2cccc(Cl)c2)C[C@@H]1C(=O)N1CCCN(C2CCC2)CC1 [Example 20, (2R,4S)-4-(3-Chloro-phenoxy)-2-(4-cyclobutyl-[1,4]diazepane-1-carbonyl)-pyrrolidine-1-carboxylic acid tert-butyl ester]",
,,6.69,"CS(=O)(=O)N1C[C@@H](Oc2ccc(F)cc2)C[C@H]1C(=O)N1CCCN(C2CCC2)CC1 [Example 137, (2S,4S)-1-Methanesulfonyl-2-(4-cyclobutyl-[1,4]diazepane-1-carbonyl)-4-(4-fluoro-phenoxy)-pyrrolidine]",
,,7.30,"CC(C)(C)OC(=O)N1CC(Oc2ccccc2)C[C@H]1C(=O)N1CCCN(C2CCC2)CC1 (stereo partly drawn) [Example 47, (2S)-2-(4-Cyclobutyl-[1,4]diazepane-1-carbonyl)-4-phenoxy-pyrrolidine-1-carboxylic acid tert-butyl ester]",
7.82,8.70,,"CSc1ccc(O[C@H]2C[C@H](C(=O)N3CCCN(C4CCC4)CC3)N(C(C)=O)C2)cc1 [Example 121, (2R,4S)-1-[2-(4-Cyclobutyl-[1,4]diazepane-1-carbonyl)-4-(4-methylsulfanyl-phenoxy)-pyrrolidin-1-yl]-ethanone]",
,,7.05,"CSc1ccc(O[C@@H]2CN[C@H](C(=O)N3CCCN(C4CCC4)CC3)C2)cc1 [Example 97, (2S,4S)-2-(4-Cyclobutyl-[1,4]diazepane-1-carbonyl)-4-(4-methylsulfanyl-phenoxy)-pyrrolidine]",
,8.52,7.92,"CC(C)(C)OC(=O)N1C[C@@H](Oc2ccc(Cl)cc2)C[C@@H]1C(=O)N1CCCN(C2CCC2)CC1 [Example 21, (2R,4S)-4-(4-Chloro-phenoxy)-2-(4-cyclobutyl-[1,4]diazepane-1-carbonyl)-pyrrolidine-1-carboxylic acid tert-butyl ester]",
,,< 5.00,"CC(C)(C)OC(=O)N1C[C@H](O)C[C@H]1C(=O)N1CCN(C2CCC2)CC1 [Example 2, (2S,4R)-2-(4-Cyclobutyl-piperazine-1-carbonyl)-4-hydroxy-pyrrolidine-1-carboxylic acid tert-butyl Ester]",
,,< 5.82,"CC(C)(C)OC(=O)N1C[C@@H](Oc2ccc(F)cc2)C[C@H]1C(=O)N1CCN(C2CCC2)CC1 [Example 12, (2S,4S)-2-(4-Cyclobutyl-piperazine-1-carbonyl)-4-(4-fluoro-phenoxy)-pyrrolidine-1-carboxylic acid tert-butyl ester]",
